Results on two compounds are retold here after US12590108B2, “Boracic acid compound” (Phaeno Therapeutics Co., Ltd, priority 2020, dated 2026).

Test [1] has as its system Klebsiella pneumoniae ATCC BAA-1705. Briefly: Mouse lung infection model, bacterial load. To be noted: endpoint 12 h. It counts as in vivo, CD-1 female mice. Here is the method:
(§1) 36 CD-1 female mice were divided into 12 cages with 3 […] in each cage. The day of infection was denoted as day 0.
(§2) Immunosuppressant cyclophosphamide at 150 mg/kg was injected intraperitoneally on day −4 and immunosuppressant cyclophosphamide at 100 mg/kg was injected intraperitoneally on day −1 to induce immunodeficient mice.
On day −1, the strain Klebsiella pneumoniae ATCC BAA-1705 was resuscitated on an MHA plate. Resuscitated colonies were picked and dissolved in sterile physiological saline to prepare a bacterial solution with a concentration of 2.75E+08 CFU/mL for lung infection by nasal drip. The initial time of infection was denoted as 0 h, and 50 μL of the bacterial solution was injected into each mouse by nasal drip at 0 h, that is, the inoculation amount was 1.38E+07 CFU/mouse. 2 h after infection, dosing was performed according to the experimental scheme. The specific experimental scheme was as follows (see Table 6): • (1) 2 h after infection: for the 1st cage of mice, at the endpoint, lung tissue was taken and placed in 10 mL of sterile physiological saline, the tissue was homogenized by a homogenizer, and the homogenate was diluted in a gradient and spotted in a plate, with two replicates for each mouse. • (2) 2 h after infection: the 2nd to 12th cages were respectively treated at 10 mL/kg by volume according to the body weight of the mice, the 2nd cage of mice were given a vehicle by intravenous injection every 2 h, and the endpoint was 12 h; the 3rd cage of mice were given 100 mg/kg of meropenem by intravenous injection every 2 h, and the endpoint was 12 h; the 4th cage of mice were given 100 mg/kg of meropenem and 20 mg/kg of QPX7728 by intravenous injection every 2 h, and the endpoint was 12 h; the 5th cage of mice were given 100 mg/kg of meropenem and 100 mg/kg of compound 15 by intravenous injection every 2 h, and the endpoint was 12 h; the 6th cage of mice were given 100 mg/kg of meropenem and 20 mg/kg of compound 15 by intravenous injection every 2 h, and the endpoint was 12 h; the 7th cage of mice were given 100 mg/kg of meropenem and 4 mg/kg of compound 15 by intravenous injection every 2 h, and the endpoint was 12 h; the 8th cage of mice were given 100 mg/kg of cefepime by intravenous injection every 2 h, and the endpoint was 12 h; the 9th cage of mice were given 100 mg/kg of cefepime and 20 mg/kg of QPX7728 by intravenous injection every 2 h, and the endpoint was 12 h; the 10th cage of mice were given 100 mg/kg of cefepime and 100 mg/kg of compound 15 by intravenous injection every 2 h, and the endpoint was 12 h: the 11th cage of mice were given 100 mg/kg of cefepime and 20 mg/kg of compound 15 by intravenous injection every 2 h, and the endpoint was 12 h; and the 12th cage of mice were given 100 mg/kg of cefepime and 4 mg/kg of compound 15 by intravenous injection every 2 h, and the endpoint was 12 h. At the endpoint, lung tissue was taken and placed in 10 mL of sterile physiological saline, the tissue was homogenized by a homogenizer, and the homogenate was diluted in a gradient and spotted in a plate, with two replicates for each mouse. The bacterial load in the lung tissue of the mice was counted, and the experiment was summarized as follows (see Table 7): […]

Test [2] shares this test system. As to the kind of experiment: Mouse thigh muscle infection model, bacterial load. In kind it is in vivo, CD-1 female mice. The settings on record: endpoint 12 h. The method, then: as §1, §2
On day −1, the strain Klebsiella pneumoniae ATCC BAA-1705 was resuscitated on an MHA plate. Resuscitated colonies were picked and dissolved in sterile physiological saline to prepare a bacterial solution with a concentration of 5.6E+07 CFU/mL for thigh muscle infection in mice. The initial time of infection was denoted as 0 h, and 100 μL of the bacterial solution was injected into each mouse at the thigh muscle at 0 h, that is, the inoculation amount was 5.6E+06 CFU/mouse. 2 h after infection, dosing was performed according to the experimental scheme. The specific experimental scheme was as follows (see Table 4): • (1) 2 h after infection: for the 1st cage of mice, at the endpoint, thigh muscle tissue was taken and placed in 10 mL of sterile physiological saline, the tissue was homogenized by a homogenizer, and the homogenate was diluted in a gradient and spotted in a plate, with two replicates for each mouse. • (2) 2 h after infection: the 2nd to 12th cages were respectively treated at 10 mL/kg by volume according to the body weight of the mice, the 2nd cage of mice were given a vehicle by intravenous injection every 2 h, and the endpoint was 12 h; the 3rd cage of mice were given 100 mg/kg of meropenem by intravenous injection every 2 h, and the endpoint was 12 h; the 4th cage of mice were given 100 mg/kg of meropenem and 20 mg/kg of QPX7728 by intravenous injection every 2 h, and the endpoint was 12 h; the 5th cage of mice were given 100 mg/kg of meropenem and 100 mg/kg of compound 15 by intravenous injection every 2 h, and the endpoint was 12 h; the 6th cage of mice were given 100 mg/kg of meropenem and 20 mg/kg of compound 15 by intravenous injection every 2 h, and the endpoint was 12 h; the 7th cage of mice were given 100 mg/kg of meropenem and 4 mg/kg of compound 15 by intravenous injection every 2 h, and the endpoint was 12 h; the 8th cage of mice were given 100 mg/kg of cefepime by intravenous injection every 2 h, and the endpoint was 12 h; the 9th cage of mice were given 100 mg/kg of cefepime and 20 mg/kg of QPX7728 by intravenous injection every 2 h, and the endpoint was 12 h; the 10th cage of mice were given 100 mg/kg of cefepime and 100 mg/kg of compound 15 by intravenous injection every 2 h, and the endpoint was 12 h; the 11th cage of mice were given 100 mg/kg of cefepime and 20 mg/kg of compound 15 by intravenous injection every 2 h, and the endpoint was 12 h; and the 12th cage of mice were given 100 mg/kg of cefepime and 4 mg/kg of compound 15 by intravenous injection every 2 h, and the endpoint was 12 h. At the endpoint of 12 h, thigh muscle tissue was taken and placed in 10 mL of sterile physiological saline, the tissue was homogenized by a homogenizer, and the homogenate was diluted in a gradient and spotted in a plate, with two replicates for each mouse. The bacterial load in the thigh muscle tissue of the mice was counted, and the experiment was summarized as follows (see Table 5): […]

The mark [3] stands for this setting: antibiotic alone 100 mg/kg i.v. q2h.
Where [4] appears, read: cefepime 100 mg/kg + inhibitor 20 mg/kg i.v. q2h.
[5] abbreviates: meropenem 100 mg/kg + inhibitor 20 mg/kg i.v. q2h.

Take `CO/N=C(\C(=O)N[C@@H]1C(=O)N2C(C(=O)[O-])=C(C[N+]3(C)CCCC3)CS[C@H]12)c1csc(N)n1` [Cefepime, cefepime, reference compound]: in test [1] (setting [3]), the “Average CFU in mice (lung tissue)” value is recorded as 1.90E+08 CFU/mouse. The “Average CFU in mice (thigh muscle tissue)” value in test [2] (setting [3]) was 4.25E+07 CFU/mouse.
Take `O=C(O)c1c(F)ccc2c1OB(O)[C@@H]1C[C@H]21` [QPX7728, reference compound]: the “Average CFU in mice (lung tissue)” value came out at 2.68E+06 CFU/mouse in test [1] (setting [4]) and 8.42E+06 CFU/mouse in test [1] (setting [5]). Besides, the “Average CFU in mice (thigh muscle tissue)” value amounted to 1.50E+07 CFU/mouse in test [2] (setting [4]) and 1.02E+07 CFU/mouse in test [2] (setting [5]).
